# Calls of active or inactive are those of the source. The calls are words filed in the database; no cut-off is given here.
# Columns and labels:
# [1] = AUC (0 to last) in ICR mouse at 3 mg/kg, iv by mass spectrometric analysis; format: ADME, organism-based; parameters: dose 3 mg/kg, route intravenous, time 0 - last; settings: in vivo
# [2] = Oral bioavailability in ICR mouse at 10 mg/kg administered via gavage by mass spectrometric analysis; format: ADME, organism-based; settings: in vivo
# [3] = target: Protein arginine N-methyltransferase 7 (Homo sapiens, UniProt Q9NVM4); test: Inhibition of recombinant full-length human PRMT7 expressed in Sf9 insect cells using Ac-KKDGKKRKRSRKESYK-biotin as substrate measured after 30 mins in presence of SAM by topcount scintillation counting method
# [4] = Cmax in ICR mouse at 10 mg/kg, po administered via gavage by mass spectrometric analysis; format: ADME, organism-based; parameters: dose 10 mg/kg, route oral; settings: in vivo
# [5] = test system: RS4-11; test: Antiproliferative activity against human RS4:11 cells measured after 6 days by CCK8/SRB assay; format: functional, cell-based
# [6] = test system: THP-1; test: Antiproliferative activity against human THP1 cells measured after 6 days by CCK8/SRB assay; format: functional, cell-based
# [7] = target: Protein arginine N-methyltransferase 6 (Homo sapiens, UniProt Q96LA8); test: Inhibition of PRMT6 (unknown origin) preincubated for 15 mins followed by substrate addition and measured after 60 mins by AlphaLisa assay
# [8] = test system: Mus musculus; test: In vivo inhibition of PRMT4 in nude BALB/c mouse xenografted with human MOLM13 cells assessed as reduction in BAF155 dimethylation at 100 mg/kg, po administered daily for 18 days measured 6 hrs post-last dose by Western blot analysis; format: functional, organism-based
# [9] = target: T1, Histone-arginine methyltransferase CARM1 (Homo sapiens, UniProt Q86X55); test: Inhibition of PRMT4 in human MOLM13 cells assessed as reduction in BAF155 dimethylation measured after 96 hrs by Western blotting analysis; format: cell-based
# T1 sequence (Q86X55 whole entry): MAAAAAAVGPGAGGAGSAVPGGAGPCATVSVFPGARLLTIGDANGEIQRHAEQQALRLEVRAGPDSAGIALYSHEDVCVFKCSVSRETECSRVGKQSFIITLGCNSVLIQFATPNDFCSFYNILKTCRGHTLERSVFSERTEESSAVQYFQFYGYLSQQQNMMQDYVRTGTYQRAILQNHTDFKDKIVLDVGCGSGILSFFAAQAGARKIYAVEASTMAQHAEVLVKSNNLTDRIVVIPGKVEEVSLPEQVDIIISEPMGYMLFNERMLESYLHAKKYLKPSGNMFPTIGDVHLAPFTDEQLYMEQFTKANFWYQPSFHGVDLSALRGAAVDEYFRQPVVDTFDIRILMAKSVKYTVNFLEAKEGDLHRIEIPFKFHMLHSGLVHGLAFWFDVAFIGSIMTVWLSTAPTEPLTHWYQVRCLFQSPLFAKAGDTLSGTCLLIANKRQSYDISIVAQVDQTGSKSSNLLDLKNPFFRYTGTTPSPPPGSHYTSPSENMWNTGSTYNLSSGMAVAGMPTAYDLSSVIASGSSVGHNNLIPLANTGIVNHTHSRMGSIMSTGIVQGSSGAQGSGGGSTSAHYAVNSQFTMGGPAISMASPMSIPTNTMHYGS
# [10] = target: Histone-lysine N-methyltransferase SMYD3 (Homo sapiens) (UniProt Q9H7B4); test: Inhibition of SMYD3 (unknown origin) up to 50 uM preincubated for 15 mins followed by substrate addition and measured after 60 mins by AlphaLisa assay
# [11] = Toxicity in nude BALB/c mouse xenografted with human MOLM13 cells assessed as body weight loss at 100 mg/kg, po administered daily for 18 days measured 2 to 3 times a week during compound dosing; format: organism-based; settings: in vivo, 432 h
# [12] = Ratio of drug level in tumor of nude BALB/c mouse xenografted with human MOLM13 cells to IC50 for antiproliferative activity against human MOLM13 cells; format: cell-based
# [13] = target: Histone-lysine N-methyltransferase SETD2 (Homo sapiens) (UniProt Q9BYW2); test: Inhibition of SETD2 (unknown origin) up to 50 uM
# [14] = test system: MOLM-13; test: Induction of apoptosis in human MOLM13 cells assessed as total apoptotic cells at 12 uM measured after 96 hrs by Annexin V-FITC/propidium iodide staining-based flow cytometry relative to control; format: functional
# [15] = AUC (0 to infinity) in ICR mouse at 10 mg/kg, po administered via gavage by mass spectrometric analysis; format: ADME, organism-based; parameters: dose 10 mg/kg, time infinity, route oral; settings: in vivo
# [16] = Volume of distribution at steady state in ICR mouse at 3 mg/kg, iv by mass spectrometric analysis; format: ADME, organism-based; settings: in vivo, read-out: Vdss
# [17] = test system: K562; test: Antiproliferative activity against human K562 cells measured after 6 days by CCK8/SRB assay; format: functional, cell-based
# [18] = target: Protein arginine N-methyltransferase 3 (Homo sapiens, UniProt O60678); test: Inhibition of PRMT3 (unknown origin) preincubated for 15 mins followed by substrate addition and measured after 60 mins by AlphaLisa assay
# [19] = target: Histone-lysine N-methyltransferase EHMT2 (Homo sapiens) (UniProt Q96KQ7); test: Inhibition of G9a (unknown origin) up to 50 uM preincubated for 15 mins followed by substrate addition and measured after 60 mins by AlphaLisa assay
# [20] = test system: HEL; test: Antiproliferative activity against HEL cells measured after 6 days by CCK8/SRB assay; format: functional, cell-based; settings: Homo sapiens
# [21] = target: Protein arginine N-methyltransferase 5 (Homo sapiens, UniProt O14744); test: Inhibition of PRMT5 (unknown origin) preincubated for 15 mins followed by substrate addition and measured after 60 mins by AlphaLisa assay
# [22] = Protein binding in mouse plasma at 2 uM; format: ADME, cell-free; settings: read-out: PPB (converted)
# [23] = test system: MOLM-13; test: Induction of apoptosis in human MOLM13 cells measured after 96 hrs by Annexin V-FITC/propidium iodide staining-based flow cytometry; format: functional, cell-based
# [24] = test system: MOLM-13; test: Cell cycle arrest in human MOLM13 cells assessed as decrease in accumulation at S-phase measured after 72 hrs by propidium iodide staining-based flow cytometry; format: functional
# [25] = target: Histone-lysine N-methyltransferase NSD2 (Homo sapiens) (UniProt O96028); test: Inhibition of NSD2 (unknown origin) up to 50 uM preincubated for 15 mins followed by substrate addition and measured after 60 mins by AlphaLisa assay
# [26] = test system: Mus musculus; test: In vivo inhibition of PRMT4 in nude BALB/c mouse xenografted with human MOLM13 cells assessed as reduction in asymmetric dimethyl arginine level at 100 mg/kg, po administered daily for 18 days measured 6 hrs post-last dose by Western blot analysis; format: functional, organism-based
# [27] = Half life in ICR mouse at 10 mg/kg, po administered via gavage by mass spectrometric analysis; format: ADME, organism-based; settings: in vivo
# [28] = test system: MONO-MAC-6; test: Antiproliferative activity against human MONO-MAC-6 cells measured after 6 days by CCK8/SRB assay; format: functional, cell-based
# [29] = target: Histone-lysine N-methyltransferase 2A (Homo sapiens) (UniProt Q03164); test: Inhibition of MLL1 (unknown origin) up to 50 uM preincubated for 10 mins followed by peptide substrate addition and measured after 4 hrs in presence of SAM by HTRF assay
# [30] = target: Protein arginine N-methyltransferase 1 (Homo sapiens, UniProt Q99873); test: Inhibition of PRMT1 (unknown origin) preincubated for 15 mins followed by substrate addition and measured after 60 mins by AlphaLisa assay
# [31] = target: T1, Histone-arginine methyltransferase CARM1; test: Inhibition of PRMT4 in human MOLM13 cells assessed as reduction in PABP1 dimethylation measured after 96 hrs by Western blotting analysis; format: cell-based
# Chain of Histone-lysine N-methyltransferase NSD2 (Homo sapiens) (O96028 whole entry): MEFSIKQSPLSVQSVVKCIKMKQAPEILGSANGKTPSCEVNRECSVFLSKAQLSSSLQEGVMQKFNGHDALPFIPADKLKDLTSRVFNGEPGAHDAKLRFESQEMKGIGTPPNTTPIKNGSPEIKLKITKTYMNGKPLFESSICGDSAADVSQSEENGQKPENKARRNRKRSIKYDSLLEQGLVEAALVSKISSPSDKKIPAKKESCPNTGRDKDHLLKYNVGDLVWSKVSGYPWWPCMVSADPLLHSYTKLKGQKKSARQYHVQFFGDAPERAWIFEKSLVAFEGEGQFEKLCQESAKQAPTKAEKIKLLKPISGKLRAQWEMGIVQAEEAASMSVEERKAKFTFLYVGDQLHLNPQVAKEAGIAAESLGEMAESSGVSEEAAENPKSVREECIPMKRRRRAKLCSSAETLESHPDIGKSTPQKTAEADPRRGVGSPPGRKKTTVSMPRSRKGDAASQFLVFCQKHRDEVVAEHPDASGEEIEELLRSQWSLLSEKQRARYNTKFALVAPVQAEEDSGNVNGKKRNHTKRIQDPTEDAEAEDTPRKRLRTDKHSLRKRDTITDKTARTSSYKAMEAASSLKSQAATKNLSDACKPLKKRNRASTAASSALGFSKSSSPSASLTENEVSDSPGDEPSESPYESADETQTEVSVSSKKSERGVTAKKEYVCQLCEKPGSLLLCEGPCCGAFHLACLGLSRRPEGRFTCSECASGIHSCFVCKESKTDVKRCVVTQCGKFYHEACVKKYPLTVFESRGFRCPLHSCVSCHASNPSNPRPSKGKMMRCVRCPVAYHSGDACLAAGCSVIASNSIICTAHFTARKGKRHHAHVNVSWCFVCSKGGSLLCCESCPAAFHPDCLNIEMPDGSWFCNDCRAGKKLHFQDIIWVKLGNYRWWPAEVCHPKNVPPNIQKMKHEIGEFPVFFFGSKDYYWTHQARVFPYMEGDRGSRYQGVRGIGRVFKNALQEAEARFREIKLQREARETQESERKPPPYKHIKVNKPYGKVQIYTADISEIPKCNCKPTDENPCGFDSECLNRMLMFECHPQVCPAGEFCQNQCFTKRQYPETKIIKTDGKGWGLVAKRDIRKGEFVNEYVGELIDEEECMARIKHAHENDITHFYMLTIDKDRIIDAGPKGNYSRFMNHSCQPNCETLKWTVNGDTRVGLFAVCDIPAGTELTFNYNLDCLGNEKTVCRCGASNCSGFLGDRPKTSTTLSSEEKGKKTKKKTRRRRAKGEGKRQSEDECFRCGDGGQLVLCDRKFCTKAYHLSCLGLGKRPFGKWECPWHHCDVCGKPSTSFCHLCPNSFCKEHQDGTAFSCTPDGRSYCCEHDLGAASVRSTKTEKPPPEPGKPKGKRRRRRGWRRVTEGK
# Chain of Protein arginine N-methyltransferase 7 (Q9NVM4 whole entry): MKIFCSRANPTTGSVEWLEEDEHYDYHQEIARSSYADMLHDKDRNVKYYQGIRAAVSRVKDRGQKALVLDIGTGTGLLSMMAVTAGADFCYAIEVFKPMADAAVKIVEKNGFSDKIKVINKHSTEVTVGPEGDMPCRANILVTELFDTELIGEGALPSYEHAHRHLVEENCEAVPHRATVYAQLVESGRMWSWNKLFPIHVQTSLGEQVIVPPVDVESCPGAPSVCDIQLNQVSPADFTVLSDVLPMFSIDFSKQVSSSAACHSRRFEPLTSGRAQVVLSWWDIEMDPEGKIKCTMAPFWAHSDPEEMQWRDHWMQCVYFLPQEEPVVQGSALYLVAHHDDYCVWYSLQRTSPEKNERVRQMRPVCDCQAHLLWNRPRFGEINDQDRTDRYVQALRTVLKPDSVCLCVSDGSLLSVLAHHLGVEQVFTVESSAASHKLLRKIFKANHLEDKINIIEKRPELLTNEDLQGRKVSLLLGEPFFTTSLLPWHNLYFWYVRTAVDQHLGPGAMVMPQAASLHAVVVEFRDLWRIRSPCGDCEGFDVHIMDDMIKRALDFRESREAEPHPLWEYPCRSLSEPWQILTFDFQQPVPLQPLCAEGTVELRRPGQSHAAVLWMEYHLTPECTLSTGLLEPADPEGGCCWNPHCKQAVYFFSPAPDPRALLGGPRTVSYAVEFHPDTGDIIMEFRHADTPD
# Chain of Histone-lysine N-methyltransferase SETD2 (Homo sapiens) (Q9BYW2 whole entry): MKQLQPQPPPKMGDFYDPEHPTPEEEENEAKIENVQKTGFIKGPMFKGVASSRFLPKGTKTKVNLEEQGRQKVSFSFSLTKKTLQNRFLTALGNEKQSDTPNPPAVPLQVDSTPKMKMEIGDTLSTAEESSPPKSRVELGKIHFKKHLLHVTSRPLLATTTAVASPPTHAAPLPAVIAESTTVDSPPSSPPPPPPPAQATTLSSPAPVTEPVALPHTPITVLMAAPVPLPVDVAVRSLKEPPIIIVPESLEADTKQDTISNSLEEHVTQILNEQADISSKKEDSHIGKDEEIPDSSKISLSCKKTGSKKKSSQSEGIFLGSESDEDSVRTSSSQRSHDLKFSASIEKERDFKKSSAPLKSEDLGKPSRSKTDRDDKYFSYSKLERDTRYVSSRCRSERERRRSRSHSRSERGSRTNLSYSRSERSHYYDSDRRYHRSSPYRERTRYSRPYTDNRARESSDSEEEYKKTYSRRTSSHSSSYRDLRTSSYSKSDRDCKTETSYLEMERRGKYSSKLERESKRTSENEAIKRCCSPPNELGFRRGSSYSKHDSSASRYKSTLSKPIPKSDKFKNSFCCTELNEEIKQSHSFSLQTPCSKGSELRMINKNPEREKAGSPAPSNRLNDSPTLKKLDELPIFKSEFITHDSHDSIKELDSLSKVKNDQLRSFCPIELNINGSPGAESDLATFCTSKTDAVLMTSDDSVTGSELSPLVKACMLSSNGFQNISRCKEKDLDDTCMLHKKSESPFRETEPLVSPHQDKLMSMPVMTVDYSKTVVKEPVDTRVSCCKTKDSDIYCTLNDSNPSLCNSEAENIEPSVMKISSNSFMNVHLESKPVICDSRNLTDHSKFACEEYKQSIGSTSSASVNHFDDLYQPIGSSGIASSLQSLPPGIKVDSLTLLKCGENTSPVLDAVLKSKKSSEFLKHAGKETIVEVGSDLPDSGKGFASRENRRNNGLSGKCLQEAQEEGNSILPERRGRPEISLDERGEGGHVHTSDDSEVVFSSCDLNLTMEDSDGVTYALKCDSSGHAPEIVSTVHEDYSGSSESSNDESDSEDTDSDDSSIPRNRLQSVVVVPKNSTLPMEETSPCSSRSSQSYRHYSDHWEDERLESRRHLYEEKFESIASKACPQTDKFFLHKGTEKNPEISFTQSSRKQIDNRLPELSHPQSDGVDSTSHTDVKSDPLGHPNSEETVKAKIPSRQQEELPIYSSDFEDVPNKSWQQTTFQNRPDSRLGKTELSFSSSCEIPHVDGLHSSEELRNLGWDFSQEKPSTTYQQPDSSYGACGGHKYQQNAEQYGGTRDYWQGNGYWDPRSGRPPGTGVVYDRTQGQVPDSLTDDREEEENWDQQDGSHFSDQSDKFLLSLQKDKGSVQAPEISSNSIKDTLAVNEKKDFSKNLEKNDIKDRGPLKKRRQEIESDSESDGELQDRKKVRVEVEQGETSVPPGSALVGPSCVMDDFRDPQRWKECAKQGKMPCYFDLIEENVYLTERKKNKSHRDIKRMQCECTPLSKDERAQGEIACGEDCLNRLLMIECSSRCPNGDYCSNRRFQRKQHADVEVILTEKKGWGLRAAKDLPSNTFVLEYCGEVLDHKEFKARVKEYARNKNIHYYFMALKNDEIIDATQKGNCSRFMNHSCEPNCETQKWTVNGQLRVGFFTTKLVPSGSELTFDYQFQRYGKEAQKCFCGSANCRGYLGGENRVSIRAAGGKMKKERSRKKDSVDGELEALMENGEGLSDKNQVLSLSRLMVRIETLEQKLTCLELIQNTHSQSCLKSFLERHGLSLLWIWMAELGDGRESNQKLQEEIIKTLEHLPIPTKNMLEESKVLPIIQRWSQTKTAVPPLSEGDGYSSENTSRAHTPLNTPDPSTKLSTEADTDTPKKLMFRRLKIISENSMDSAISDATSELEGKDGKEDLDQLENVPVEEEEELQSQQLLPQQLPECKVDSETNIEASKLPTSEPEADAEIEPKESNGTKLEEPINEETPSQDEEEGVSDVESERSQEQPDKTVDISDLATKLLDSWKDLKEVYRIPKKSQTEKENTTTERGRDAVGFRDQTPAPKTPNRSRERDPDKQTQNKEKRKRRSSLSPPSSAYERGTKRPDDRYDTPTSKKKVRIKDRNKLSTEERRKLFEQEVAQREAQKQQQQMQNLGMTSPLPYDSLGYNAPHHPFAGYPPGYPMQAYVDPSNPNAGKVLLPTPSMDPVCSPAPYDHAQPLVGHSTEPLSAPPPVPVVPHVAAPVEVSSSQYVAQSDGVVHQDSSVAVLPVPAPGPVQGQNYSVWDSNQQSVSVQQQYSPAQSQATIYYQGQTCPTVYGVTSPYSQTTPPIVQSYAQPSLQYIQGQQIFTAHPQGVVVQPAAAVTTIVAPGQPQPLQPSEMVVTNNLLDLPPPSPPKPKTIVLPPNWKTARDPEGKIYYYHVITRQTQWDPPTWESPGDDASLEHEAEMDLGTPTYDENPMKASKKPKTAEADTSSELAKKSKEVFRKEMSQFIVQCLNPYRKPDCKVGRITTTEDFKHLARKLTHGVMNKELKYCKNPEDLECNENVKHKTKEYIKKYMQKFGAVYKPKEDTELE
# Chain of Protein arginine N-methyltransferase 1 (Q99873 whole entry): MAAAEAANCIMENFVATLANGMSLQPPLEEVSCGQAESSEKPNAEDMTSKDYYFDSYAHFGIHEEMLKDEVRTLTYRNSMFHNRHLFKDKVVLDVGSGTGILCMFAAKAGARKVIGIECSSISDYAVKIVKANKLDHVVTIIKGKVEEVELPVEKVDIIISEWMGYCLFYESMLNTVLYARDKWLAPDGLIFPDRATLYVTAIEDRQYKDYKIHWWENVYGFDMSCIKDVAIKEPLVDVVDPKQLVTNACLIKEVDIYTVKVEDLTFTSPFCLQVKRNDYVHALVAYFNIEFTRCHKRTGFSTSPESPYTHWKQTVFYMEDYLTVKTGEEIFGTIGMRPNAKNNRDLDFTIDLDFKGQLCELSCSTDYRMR
smiles,measurement,setting,value
CNC[C@@H](O)CN1CCc2c(cccc2OCc2ccc(-c3nccs3)cc2)C1,AUC(0-t),[1],869 ng·h/mL
same,bioavailability,[2],48.8%
same,IC50,[3],> 30 µM
same,Cmax,[4],75.4 ng/mL
same,Activity,[5],Dose-dependent effect
same,Activity,[6],Dose-dependent effect
same,IC50,[7],7.9 µM
same,inhibition,[8],Active
same,IC50,[9],369 nM
same,inhibition,[10],inactive
same,Activity,[11],Non-Toxic
same,Ratio,[12],20 to 30
same,inhibition,[13],inactive
same,Activity,[14],96.4%
same,AUC(0-inf),[15],3030 ng·h/mL
same,Vd,[16],42.6 L/kg
same,Activity,[17],Dose-dependent effect
same,IC50,[18],> 10 µM
same,inhibition,[19],inactive
same,Activity,[20],Dose-dependent effect
same,IC50,[21],> 30 µM
same,fraction unbound at 2 µM,[22],0.02
same,Activity,[23],Dose-dependent effect
same,Activity,[24],Dose-dependent effect
same,inhibition,[25],inactive
same,inhibition,[26],Active
same,half-life,[27],1450 min
same,Activity,[28],Dose-dependent effect
same,inhibition,[29],inactive
same,IC50,[30],8.6 µM
same,IC50,[31],545 nM

# From ChEMBL document CHEMBL4396888, “Design and Synthesis of Potent, Selective Inhibitors of Protein Arginine Methyltransferase 4 against Acute Myeloid Leukemia” (J Med Chem, 2019)
